Results taken from ChEMBL document CHEMBL3885861, “Open TG-GATES”.

Organism: Rattus norvegicus
Assay: Open TG-GATES - Regimen: Daily Repeat
Assay type: toxicity, organism-based, Sprague-Dawley
Design: regimen Daily Repeat, gender Male, age 6 weeks
Details: in vivo, po, 1000 mg/kg, route gavage, dose level High; for Bas / Eos / Fbg / Hb / Ht / Lym / MCH / MCHC / MCV / Mono / Neu / PT / Plat / RBC / Ret / WBC / APTT: tissue Blood; for KIDNEY_L / KIDNEY_R / KIDNEY_TOTAL: tissue Kidney; for LIVER: tissue Liver; for ALP / ALT / AST / BUN / CRE / Ca / DBIL / GLC / IP / K / LDH / Na / PL / RALB / TBIL / TC / TG / TP / gamma-GTP / Cl: tissue Plasma

CCOc1ccc(NC(C)=O)cc1 [PHENACETIN]
TERMINAL_BW (72 h, time 3 day): 201.2 g | Bas (72 h, time 3 day): 0% | Eos (72 h, time 3 day): 0.8% | Fbg (72 h, time 3 day): 283.2 mg/dL | Hb (72 h, time 3 day): 12.6 g/dL | Ht (72 h, time 3 day): 37.2% | Lym (72 h, time 3 day): 69.4% | MCH (72 h, time 3 day): 19.9 pg | MCHC (72 h, time 3 day): 33.9% | MCV (72 h, time 3 day): 58.8 fL | Mono (72 h, time 3 day): 3.2% | Neu (72 h, time 3 day): 26% | PT (72 h, time 3 day): 13.3 s | Plat (72 h, time 3 day): 131.8 x10_4/uL | RBC (72 h, time 3 day): 633.4 x10_4/ul | Ret (72 h, time 3 day): 1.5% | WBC (72 h, time 3 day): 108.7 x10_2/uL | KIDNEY_L (72 h, time 3 day): 1 g | KIDNEY_R (72 h, time 3 day): 0.9 g | KIDNEY_TOTAL (72 h, time 3 day): 1.9 g | LIVER (72 h, time 3 day): 11 g | ALP (72 h, time 3 day): 1479.6 IU/L | ALT (72 h, time 3 day): 43.2 IU/L | AST (72 h, time 3 day): 73.6 IU/L | BUN (72 h, time 3 day): 17.8 mg/dL | CRE (72 h, time 3 day): 0.2 mg/dL | Ca (72 h, time 3 day): 11 mg/dL | DBIL (72 h, time 3 day): 0.024 mg/dL | GLC (72 h, time 3 day): 154.6 mg/dL | IP (72 h, time 3 day): 6.3 mg/dL | K (72 h, time 3 day): 4.4 meq/L | LDH (72 h, time 3 day): 77.6 IU/L | Na (72 h, time 3 day): 143.8 meq/L | PL (72 h, time 3 day): 202.4 mg/dL | RALB (72 h, time 3 day): 2.7 g/dL | TBIL (72 h, time 3 day): 0.092 mg/dL | TC (72 h, time 3 day): 111.8 mg/dL | TG (72 h, time 3 day): 87.4 mg/dL | TP (72 h, time 3 day): 5.9 g/dL | gamma-GTP (72 h, time 3 day): 1.4 IU/L | TERMINAL_BW ([…], time 7 day): 234.8 g | TERMINAL_BW ([…], time 14 day): 283.3 g | TERMINAL_BW ([…], time 28 day): 363.6 g | APTT ([…], time 7 day): 22.5 s | Bas ([…], time 7 day): 0.4% | Eos ([…], time 7 day): 0.4% | Fbg ([…], time 7 day): 319.6 mg/dL | Ht ([…], time 7 day): 33.4% | Lym ([…], time 7 day): 62.2% | MCH ([…], time 7 day): 22.7 pg | MCHC ([…], time 7 day): 31.2% | MCV ([…], time 7 day): 72.7 fL | Mono ([…], time 7 day): 3% | Neu ([…], time 7 day): 33.4% | PT ([…], time 7 day): 13.6 s | Plat ([…], time 7 day): 156.2 x10_4/uL | RBC ([…], time 7 day): 463.8 x10_4/ul | Ret ([…], time 7 day): 17.7% | WBC ([…], time 7 day): 178.5 x10_2/uL | APTT ([…], time 14 day): 19 s | Bas ([…], time 14 day): 0.2% | Eos ([…], time 14 day): 0.8% | Fbg ([…], time 14 day): 263.6 mg/dL | Ht ([…], time 14 day): 43.1% | Lym ([…], time 14 day): 72% | MCH ([…], time 14 day): 25.1 pg | MCHC ([…], time 14 day): 32% | MCV ([…], time 14 day): 78.4 fL | Mono ([…], time 14 day): 3.2% | Neu ([…], time 14 day): 23.6% | PT ([…], time 14 day): 13.7 s | Plat ([…], time 14 day): 108.2 x10_4/uL | RBC ([…], time 14 day): 550.4 x10_4/ul | WBC ([…], time 14 day): 119.8 x10_2/uL | APTT ([…], time 28 day): 18.1 s | Bas ([…], time 28 day): 0% | Eos ([…], time 28 day): 1% | Fbg ([…], time 28 day): 251.2 mg/dL | Hb ([…], time 28 day): 13.7 g/dL | Lym ([…], time 28 day): 66.8% | MCH ([…], time 28 day): 24.3 pg | MCHC ([…], time 28 day): 33.3% | MCV ([…], time 28 day): 72.8 fL | Mono ([…], time 28 day): 3.2% | Neu ([…], time 28 day): 28.4% | Plat ([…], time 28 day): 106.4 x10_4/uL | RBC ([…], time 28 day): 566.6 x10_4/ul | Ret ([…], time 28 day): 11.5% | WBC ([…], time 28 day): 134.5 x10_2/uL | KIDNEY_L ([…], time 7 day): 1.1 g | KIDNEY_R ([…], time 7 day): 1.1 g | KIDNEY_TOTAL ([…], time 7 day): 2.2 g | KIDNEY_L ([…], time 14 day): 1.3 g | KIDNEY_R ([…], time 14 day): 1.3 g | KIDNEY_TOTAL ([…], time 14 day): 2.5 g | KIDNEY_L ([…], time 28 day): 1.5 g | KIDNEY_R ([…], time 28 day): 1.5 g | KIDNEY_TOTAL ([…], time 28 day): 3 g | LIVER ([…], time 7 day): 11.9 g | LIVER ([…], time 14 day): 13.2 g | ALP ([…], time 7 day): 1794.2 IU/L | ALT ([…], time 7 day): 46.4 IU/L | AST ([…], time 7 day): 73.2 IU/L | BUN ([…], time 7 day): 16 mg/dL | CRE ([…], time 7 day): 0.2 mg/dL | Ca ([…], time 7 day): 11 mg/dL | Cl ([…], time 7 day): 104.8 meq/L | DBIL ([…], time 7 day): 0.04 mg/dL | GLC ([…], time 7 day): 167.4 mg/dL | IP ([…], time 7 day): 5.9 mg/dL | K ([…], time 7 day): 4.5 meq/L | LDH ([…], time 7 day): 81.4 IU/L | Na ([…], time 7 day): 144 meq/L | PL ([…], time 7 day): 172.4 mg/dL | RALB ([…], time 7 day): 2.7 g/dL | TBIL ([…], time 7 day): 0.2 mg/dL | TC ([…], time 7 day): 75.6 mg/dL | TG ([…], time 7 day): 160 mg/dL | TP ([…], time 7 day): 6 g/dL | gamma-GTP ([…], time 7 day): 1.2 IU/L | ALP ([…], time 14 day): 1457 IU/L | ALT ([…], time 14 day): 43.2 IU/L | AST ([…], time 14 day): 68 IU/L | CRE ([…], time 14 day): 0.2 mg/dL | Ca ([…], time 14 day): 10.8 mg/dL | Cl ([…], time 14 day): 103.8 meq/L | DBIL ([…], time 14 day): 0.036 mg/dL | GLC ([…], time 14 day): 168.8 mg/dL | IP ([…], time 14 day): 6.2 mg/dL | K ([…], time 14 day): 4.5 meq/L | LDH ([…], time 14 day): 154 IU/L | Na ([…], time 14 day): 143.2 meq/L | PL ([…], time 14 day): 176.6 mg/dL | RALB ([…], time 14 day): 2.7 g/dL | TBIL ([…], time 14 day): 0.1 mg/dL | TC ([…], time 14 day): 81.6 mg/dL | TG ([…], time 14 day): 171.4 mg/dL | TP ([…], time 14 day): 5.9 g/dL | gamma-GTP ([…], time 14 day): 1.4 IU/L | ALP ([…], time 28 day): 1375.4 IU/L | ALT ([…], time 28 day): 51.4 IU/L | AST ([…], time 28 day): 72.2 IU/L | BUN ([…], time 28 day): 21.4 mg/dL | CRE ([…], time 28 day): 0.3 mg/dL | Ca ([…], time 28 day): 10.8 mg/dL | Cl ([…], time 28 day): 102.8 meq/L | DBIL ([…], time 28 day): 0.038 mg/dL | GLC ([…], time 28 day): 157 mg/dL | IP ([…], time 28 day): 6.6 mg/dL | K ([…], time 28 day): 4.4 meq/L | LDH ([…], time 28 day): 70.8 IU/L | Na ([…], time 28 day): 145.2 meq/L | PL ([…], time 28 day): 171 mg/dL | RALB ([…], time 28 day): 2.8 g/dL | TBIL ([…], time 28 day): 0.1 mg/dL | TC ([…], time 28 day): 81.2 mg/dL | TG ([…], time 28 day): 125.6 mg/dL | TP ([…], time 28 day): 6.3 g/dL | gamma-GTP ([…], time 28 day): 1.2 IU/L
